These results are taken from ChEMBL document CHEMBL4507266, “Data for DCP probe BAY-784” (2021).

The target of data set [1] is T1, GABA-A receptor; anion channel (Rattus norvegicus) (UniProt O09028+P15431+P18506+P18508+P19969+P20236+P23574+P23576+P28471+P28473+P30191+P62813+P63079+P63138+Q91ZM7+Q9ES14). Kind of data set: Inhibition of GABAA, Muscimol, Central at 10 µM in the Eurofins-Panlabs radioligand binding assay (Eurofins_assay_226500). To be noted: Compound concentration 10.0 uM. The format is protein-complex assay.

For data set [2], the target named is Histamine H2 receptor (Homo sapiens) (UniProt P25021). The note with it: Compound concentration 10.0 uM.
Histamine H2 receptor (Homo sapiens), sequence (P25021 whole entry): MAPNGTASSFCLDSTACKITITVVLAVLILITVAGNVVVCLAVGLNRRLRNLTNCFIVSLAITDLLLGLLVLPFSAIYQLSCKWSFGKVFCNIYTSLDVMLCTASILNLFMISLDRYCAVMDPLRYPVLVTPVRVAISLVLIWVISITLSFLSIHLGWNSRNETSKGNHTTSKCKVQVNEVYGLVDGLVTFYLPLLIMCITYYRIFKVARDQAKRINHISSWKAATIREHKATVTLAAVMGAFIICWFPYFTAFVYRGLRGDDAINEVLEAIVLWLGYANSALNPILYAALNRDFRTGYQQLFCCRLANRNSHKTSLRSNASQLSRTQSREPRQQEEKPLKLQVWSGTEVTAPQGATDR
For data set [3], the target named is Substance-K receptor (Homo sapiens) (UniProt P21452). Kind of data set: Inhibition of Tachykinin NK2 at 10 µM in the Eurofins-Panlabs radioligand binding assay (Eurofins_assay_255600). To be noted: Compound concentration 10.0 uM. The arrangement: ligand concentration 0.5 nM.
Substance-K receptor (Homo sapiens), sequence (P21452 whole entry): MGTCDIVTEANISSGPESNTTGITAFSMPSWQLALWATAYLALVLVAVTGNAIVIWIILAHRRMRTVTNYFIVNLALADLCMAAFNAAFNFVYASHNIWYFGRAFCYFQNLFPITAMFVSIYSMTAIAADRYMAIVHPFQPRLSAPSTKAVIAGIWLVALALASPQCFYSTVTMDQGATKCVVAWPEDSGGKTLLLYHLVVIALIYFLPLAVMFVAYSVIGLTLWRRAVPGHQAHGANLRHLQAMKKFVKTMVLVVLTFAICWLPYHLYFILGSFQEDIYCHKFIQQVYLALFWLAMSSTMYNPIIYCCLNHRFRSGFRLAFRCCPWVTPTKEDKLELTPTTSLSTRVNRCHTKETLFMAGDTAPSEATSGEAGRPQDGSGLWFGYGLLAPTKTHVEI
Data set [4] deals with Tyrosine-protein kinase Fyn (Homo sapiens) (UniProt P06241). As to the kind of experiment: Inhibition of Protein Tyrosine Kinase, Fyn at 10 µM in the Eurofins-Panlabs enzyme assay (Eurofins_assay_172020). Also noted: substrate with concentration. The note with it: Compound concentration 10.0 uM.
Tyrosine-protein kinase Fyn (Homo sapiens), sequence (P06241 2-537 limits assumed): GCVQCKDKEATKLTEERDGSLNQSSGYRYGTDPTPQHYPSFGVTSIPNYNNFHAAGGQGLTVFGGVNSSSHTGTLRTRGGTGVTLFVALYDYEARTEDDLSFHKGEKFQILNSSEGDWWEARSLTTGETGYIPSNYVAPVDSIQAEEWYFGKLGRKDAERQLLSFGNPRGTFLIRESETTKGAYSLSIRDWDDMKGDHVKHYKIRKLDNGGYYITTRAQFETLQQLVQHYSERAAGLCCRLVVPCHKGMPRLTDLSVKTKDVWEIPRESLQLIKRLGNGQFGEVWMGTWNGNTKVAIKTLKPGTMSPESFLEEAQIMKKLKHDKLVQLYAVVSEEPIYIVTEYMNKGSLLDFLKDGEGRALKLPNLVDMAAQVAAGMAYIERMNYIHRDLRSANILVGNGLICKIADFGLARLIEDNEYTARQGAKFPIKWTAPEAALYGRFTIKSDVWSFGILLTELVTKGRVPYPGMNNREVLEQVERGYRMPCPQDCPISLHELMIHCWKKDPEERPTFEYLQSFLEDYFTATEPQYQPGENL
Data set [5] deals with T2, 5-hydroxytryptamine receptor 2C (Homo sapiens) (UniProt P28335).
T2 sequence (whole entry): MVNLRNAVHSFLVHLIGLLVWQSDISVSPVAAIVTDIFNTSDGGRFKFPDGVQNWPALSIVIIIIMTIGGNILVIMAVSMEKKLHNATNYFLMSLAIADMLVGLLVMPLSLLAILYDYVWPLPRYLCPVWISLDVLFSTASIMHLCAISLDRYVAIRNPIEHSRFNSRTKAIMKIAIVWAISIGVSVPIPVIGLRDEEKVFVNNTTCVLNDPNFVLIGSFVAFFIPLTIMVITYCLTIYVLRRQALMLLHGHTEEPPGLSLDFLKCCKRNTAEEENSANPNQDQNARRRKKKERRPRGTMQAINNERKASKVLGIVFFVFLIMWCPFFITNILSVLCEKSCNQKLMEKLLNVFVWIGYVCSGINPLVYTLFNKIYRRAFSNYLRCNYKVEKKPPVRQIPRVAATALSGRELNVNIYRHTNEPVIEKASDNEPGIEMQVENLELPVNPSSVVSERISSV
To be noted: Compound concentration 10.0 uM.

In data set [6] the target is ATP-sensitive inward rectifier potassium channel 11 (Cricetulus griseus) (UniProt A0A3L7HHE1). Kind of data set: Inhibition of Potassium Channel [KATP] at 10 µM in the Eurofins-Panlabs radioligand binding assay (Eurofins_assay_265600). The note with it: Cricetinae; Compound concentration 10.0 uM.
ATP-sensitive inward rectifier potassium channel 11 (Cricetulus griseus), sequence (A0A3L7HHE1 as listed by the source): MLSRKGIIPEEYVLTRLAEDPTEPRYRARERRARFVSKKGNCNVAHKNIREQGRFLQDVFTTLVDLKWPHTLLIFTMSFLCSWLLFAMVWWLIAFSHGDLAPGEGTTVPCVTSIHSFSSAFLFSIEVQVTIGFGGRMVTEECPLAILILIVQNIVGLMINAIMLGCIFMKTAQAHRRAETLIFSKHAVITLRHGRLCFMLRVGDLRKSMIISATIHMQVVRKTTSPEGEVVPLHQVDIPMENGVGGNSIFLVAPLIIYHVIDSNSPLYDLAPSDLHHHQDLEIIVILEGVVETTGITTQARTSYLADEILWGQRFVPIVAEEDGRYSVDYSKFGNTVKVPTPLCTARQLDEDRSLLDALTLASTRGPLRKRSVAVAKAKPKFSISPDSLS
For data set [7], the target named is Muscarinic acetylcholine receptor M3 (Homo sapiens) (UniProt P20309). To be noted: Compound concentration 10.0 uM.
Muscarinic acetylcholine receptor M3 (Homo sapiens), sequence (P20309 whole entry, looked up): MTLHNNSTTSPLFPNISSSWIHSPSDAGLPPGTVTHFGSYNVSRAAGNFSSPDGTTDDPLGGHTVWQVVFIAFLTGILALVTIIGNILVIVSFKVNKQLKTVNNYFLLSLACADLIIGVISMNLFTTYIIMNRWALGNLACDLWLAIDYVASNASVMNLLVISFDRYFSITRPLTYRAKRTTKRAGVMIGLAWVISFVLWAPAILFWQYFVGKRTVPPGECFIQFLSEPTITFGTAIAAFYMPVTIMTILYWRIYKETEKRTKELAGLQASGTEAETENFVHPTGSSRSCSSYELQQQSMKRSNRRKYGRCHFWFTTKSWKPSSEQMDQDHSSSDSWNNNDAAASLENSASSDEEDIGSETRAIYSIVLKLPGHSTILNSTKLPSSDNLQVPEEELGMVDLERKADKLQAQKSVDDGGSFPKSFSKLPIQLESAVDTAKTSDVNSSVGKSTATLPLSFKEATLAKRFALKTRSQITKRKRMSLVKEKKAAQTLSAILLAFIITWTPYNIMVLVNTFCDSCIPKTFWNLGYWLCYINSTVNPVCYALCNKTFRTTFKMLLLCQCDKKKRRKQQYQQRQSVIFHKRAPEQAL
The next data set is filed under the species Rattus norvegicus. As to the kind of experiment: Inhibition of Glutamate, NMDA, Phencyclidine at 10 µM in the Eurofins-Panlabs radioligand binding assay (Eurofins_assay_233000). To be noted: Compound concentration 10.0 uM. The format is protein-complex assay.
The target in data set [8] is T3, Alpha-1A adrenergic receptor (Homo sapiens) (UniProt P35348).
T3 sequence (whole entry): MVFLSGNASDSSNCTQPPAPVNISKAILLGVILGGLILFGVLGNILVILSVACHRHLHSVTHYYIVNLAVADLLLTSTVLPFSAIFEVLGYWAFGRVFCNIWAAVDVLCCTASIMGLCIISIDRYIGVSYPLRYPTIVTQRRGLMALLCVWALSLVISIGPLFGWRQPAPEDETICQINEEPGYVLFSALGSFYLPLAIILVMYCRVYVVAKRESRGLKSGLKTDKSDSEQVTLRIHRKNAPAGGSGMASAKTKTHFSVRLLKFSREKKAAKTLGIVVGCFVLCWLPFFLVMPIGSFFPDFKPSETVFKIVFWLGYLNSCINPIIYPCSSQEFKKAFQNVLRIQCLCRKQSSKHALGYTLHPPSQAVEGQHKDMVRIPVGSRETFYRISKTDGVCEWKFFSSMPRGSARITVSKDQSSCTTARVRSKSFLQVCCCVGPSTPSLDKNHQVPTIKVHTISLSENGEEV
To be noted: Rattus norvegicus; Compound concentration 10.0 uM.

Data set [9] concerns the target Glutamate receptor ionotropic, kainate (Rattus norvegicus) (UniProt P22756+Q01812+P42260+P42264+Q63273). As to the kind of experiment: Inhibition of Glutamate, Kainate at 10 µM in the Eurofins-Panlabs radioligand binding assay (Eurofins_assay_232700). To be noted: Compound concentration 10.0 uM.
Data set [10] deals with Interstitial collagenase (Homo sapiens) (UniProt P03956). As to the kind of experiment: Inhibition of Peptidase, Matrix Metalloproteinase-1 (MMP-1) at 10 µM in the Eurofins-Panlabs enzyme assay (Eurofins_assay_114110). To be noted: Compound concentration 10.0 uM.
Data set [11] concerns the target D(3) dopamine receptor (Homo sapiens) (UniProt P35462). To be noted: Compound concentration 10.0 uM.
Data set [12] deals with Kappa-type opioid receptor (Homo sapiens) (UniProt P41145). To be noted: Compound concentration 10.0 uM.
Kappa-type opioid receptor (Homo sapiens), sequence (P41145 whole entry): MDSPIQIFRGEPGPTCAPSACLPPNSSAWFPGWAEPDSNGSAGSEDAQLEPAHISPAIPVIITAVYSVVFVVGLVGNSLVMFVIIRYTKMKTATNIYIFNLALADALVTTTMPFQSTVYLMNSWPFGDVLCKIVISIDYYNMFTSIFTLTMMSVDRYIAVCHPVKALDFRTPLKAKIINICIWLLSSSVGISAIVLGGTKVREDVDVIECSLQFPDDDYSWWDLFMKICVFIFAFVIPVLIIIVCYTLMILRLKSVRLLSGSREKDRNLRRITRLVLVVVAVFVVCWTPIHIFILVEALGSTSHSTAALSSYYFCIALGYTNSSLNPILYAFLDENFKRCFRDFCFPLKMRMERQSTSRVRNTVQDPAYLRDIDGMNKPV
The target in data set [13] is T1, GABA-A receptor; anion channel (Rattus norvegicus). The note with it: Compound concentration 10.0 uM.
Data set [14] deals with Progesterone receptor (Bos taurus). Kind of data set: Progesterone Eurofins-Panlabs radioligand binding assay. To be noted: Compound concentration 10.0 uM.
Data set [15] addresses Cholecystokinin receptor type A (Homo sapiens) (UniProt P32238). Kind of data set: Inhibition of Cholecystokinin CCK1 (CCKA) at 10 µM in the Eurofins-Panlabs radioligand binding assay (Eurofins_assay_218020). To be noted: Compound concentration 10.0 uM.
Data set [16] addresses Adenosine receptor A2a (Homo sapiens) (UniProt P29274). The note with it: Compound concentration 10.0 uM.
The species named for a further data set is Homo sapiens. As to the kind of experiment: Inhibition of Tumor Necrosis Factor (TNF), Non-Selective at 10 µM in the Eurofins-Panlabs radioligand binding assay (Eurofins_assay_286510). The note with it: Compound concentration 10.0 uM.
Data set [17] deals with 5-hydroxytryptamine receptor 1A (Homo sapiens) (UniProt P08908). To be noted: Compound concentration 10.0 uM.
Data set [18] deals with Polyunsaturated fatty acid lipoxygenase ALOX15 (Homo sapiens) (UniProt P16050). As to the kind of experiment: Inhibition of Lipoxygenase 15-LO at 10 µM in the Eurofins-Panlabs enzyme assay (Eurofins_assay_138000). The note with it: Oryctolagus cuniculus; Compound concentration 10.0 uM.
Polyunsaturated fatty acid lipoxygenase ALOX15 (Homo sapiens), sequence (P16050 whole entry): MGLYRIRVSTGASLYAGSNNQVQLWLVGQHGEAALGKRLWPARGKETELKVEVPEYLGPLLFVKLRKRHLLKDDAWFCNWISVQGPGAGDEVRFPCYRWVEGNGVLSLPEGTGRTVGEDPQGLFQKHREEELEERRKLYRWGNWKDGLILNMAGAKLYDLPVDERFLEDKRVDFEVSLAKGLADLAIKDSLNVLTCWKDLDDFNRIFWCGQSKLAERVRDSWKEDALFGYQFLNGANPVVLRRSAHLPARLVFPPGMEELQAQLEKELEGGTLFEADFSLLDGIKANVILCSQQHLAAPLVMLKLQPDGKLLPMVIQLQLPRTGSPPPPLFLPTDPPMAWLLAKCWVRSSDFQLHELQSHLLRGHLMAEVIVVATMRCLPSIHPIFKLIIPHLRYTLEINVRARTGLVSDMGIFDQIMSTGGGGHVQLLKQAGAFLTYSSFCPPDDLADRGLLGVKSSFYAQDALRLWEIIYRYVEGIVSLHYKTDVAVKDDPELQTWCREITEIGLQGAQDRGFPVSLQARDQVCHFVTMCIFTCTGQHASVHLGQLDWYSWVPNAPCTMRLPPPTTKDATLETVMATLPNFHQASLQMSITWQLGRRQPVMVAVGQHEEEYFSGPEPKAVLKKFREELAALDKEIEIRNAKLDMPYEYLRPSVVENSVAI
The target of data set [19] is Prostaglandin G/H synthase 2 (Homo sapiens) (UniProt P35354). Kind of data set: Inhibition of Cyclooxygenase COX-2 at compound concentration of 10.0 uM in the Eurofins-Panlabs enzyme assay (Eurofins_assay_118010). The arrangement: substrate with concentration 0.3 uM Arachidonic acid, incubation time 15 min, incubation temperature 37 C. To be noted: Compound concentration 10.0 uM.
Prostaglandin G/H synthase 2 (Homo sapiens), sequence (P35354 whole entry): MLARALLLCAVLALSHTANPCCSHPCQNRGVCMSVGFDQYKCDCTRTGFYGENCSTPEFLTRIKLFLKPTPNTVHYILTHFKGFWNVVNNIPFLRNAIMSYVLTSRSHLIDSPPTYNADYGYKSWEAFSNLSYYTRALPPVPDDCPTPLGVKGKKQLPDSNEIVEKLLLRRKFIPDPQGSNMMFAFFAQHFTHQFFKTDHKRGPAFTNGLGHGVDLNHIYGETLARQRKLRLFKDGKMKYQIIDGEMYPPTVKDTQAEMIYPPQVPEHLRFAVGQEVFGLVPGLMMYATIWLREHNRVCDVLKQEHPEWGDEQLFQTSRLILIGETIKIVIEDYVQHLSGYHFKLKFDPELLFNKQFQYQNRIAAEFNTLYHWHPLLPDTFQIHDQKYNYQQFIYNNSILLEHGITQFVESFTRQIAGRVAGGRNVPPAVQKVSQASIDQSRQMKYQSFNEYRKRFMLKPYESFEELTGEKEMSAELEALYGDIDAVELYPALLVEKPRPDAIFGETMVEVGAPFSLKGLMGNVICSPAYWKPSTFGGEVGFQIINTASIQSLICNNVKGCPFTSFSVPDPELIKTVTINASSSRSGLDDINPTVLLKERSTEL

Data set [20] has as its target L-type calcium channel, benzothiazepine site (Cav1.2 alpha-1C) (Homo sapiens, UniProt Q13936). Kind of data set: Inhibition of Calcium Channel L-Type, Benzothiazepine at 10 µM in the Eurofins-Panlabs radioligand binding assay (Eurofins_assay_214510). Also noted: ligand concentration 2 nM, non-specific ligand with concentration 10 µM Diltiazem, incubation time 3h, incubation temperature 4 °C. The note with it: male, Wistar, rat, rat whole brain preparation, probe [3H] Diltiazem, 2 nM; compound concentration 10 uM; target entry is the homologue from another species.

Data set [21] concerns the target Gonadotropin-releasing hormone receptor (Homo sapiens, UniProt P30968). As to the kind of experiment: Mechanistic assay measuring cellular IP1. The class given is functional.

A word on the inhibition: it is the change of the read-out against control, counted positive when it falls. A word on the IC50: it is the concentration that gives 50% inhibition. A low value points to higher potency.

Structures are written as SMILES.

D(3) dopamine receptor (Homo sapiens), sequence (P35462 whole entry): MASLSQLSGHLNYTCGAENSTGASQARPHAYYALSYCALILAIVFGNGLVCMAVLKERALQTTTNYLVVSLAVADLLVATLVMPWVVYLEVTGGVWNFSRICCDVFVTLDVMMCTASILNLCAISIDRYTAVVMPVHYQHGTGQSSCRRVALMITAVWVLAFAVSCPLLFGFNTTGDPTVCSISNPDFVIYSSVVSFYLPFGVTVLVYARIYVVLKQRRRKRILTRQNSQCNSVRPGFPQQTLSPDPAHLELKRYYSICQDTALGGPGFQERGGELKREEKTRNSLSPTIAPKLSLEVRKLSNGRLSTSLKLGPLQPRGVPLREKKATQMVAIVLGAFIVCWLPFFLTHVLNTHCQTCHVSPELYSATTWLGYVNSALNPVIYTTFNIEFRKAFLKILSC
Adenosine receptor A2a (Homo sapiens), sequence (P29274 whole entry): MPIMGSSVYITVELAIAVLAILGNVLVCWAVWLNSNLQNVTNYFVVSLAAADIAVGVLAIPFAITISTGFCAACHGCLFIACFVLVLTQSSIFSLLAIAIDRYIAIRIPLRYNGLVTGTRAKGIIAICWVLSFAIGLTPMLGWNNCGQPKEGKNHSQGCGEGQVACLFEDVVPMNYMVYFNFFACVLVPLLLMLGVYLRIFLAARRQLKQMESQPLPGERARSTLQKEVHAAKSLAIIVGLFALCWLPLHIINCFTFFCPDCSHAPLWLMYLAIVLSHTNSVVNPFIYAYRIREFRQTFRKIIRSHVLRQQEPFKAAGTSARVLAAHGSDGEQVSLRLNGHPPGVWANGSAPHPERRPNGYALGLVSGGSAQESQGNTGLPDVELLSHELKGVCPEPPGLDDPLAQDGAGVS

As for `O=C(NCc1ncc(C(F)(F)F)cc1Cl)c1ccc2c(c1)C1(CCS(=O)(=O)CC1)[C@H](C1CC1)N2S(=O)(=O)c1ccc(F)cc1` [BAY-784], the inhibition in data set [1] is 7%; in data set [2] it was 1%; in data set [3] it was 7%; in data set [4], 5%; in [5] it was 9%; in data set [6] it was 0%. The inhibition in [7] was 1%; in the data set listed under Rattus norvegicus, -4%; in [8], 7%; in [9], 1%; in data set [10], -4%; in data set [11], 17%. Also, the inhibition in data set [12] was 7%; in [13], 34%; in data set [14], 0%; in data set [15], -3%; in data set [16], 0%; in the data set filed under Homo sapiens it was 22%. Moreover, the results for the inhibition in data set [17], in data set [18] and in [19] were 0%, 11% and 4%, respectively. For the same compound, the inhibition at 3 h, 10 µM in data set [20] is 29% (not active).

In the case of `O=C(NCc1ncc(C(F)(F)F)cc1Cl)c1ccc2c(c1)C1(CCS(=O)(=O)CC1)[C@@H](C1CC1)N2S(=O)(=O)c1ccc(F)cc1` [BAY-786], the IC50 in data set [21] was 2400 nM (not active).
